Numbering of substitutions follows the chain as printed. Names and notes keep the numbering of the source. Values joined by “and” are separate entries in the source; they are usually repeats but may differ in a detail not shown here. Equal values may be shown once. Read-outs that look alike come from different tables or passages of the source.
T1: FACI53 (Bos taurus, UniProt P07107, A54C)
T1 construct: badan (6-bromoacetyl-2-dimethylaminonaphthalene) fluorophore on the introduced Cys-53; made in house; host or cells: E. coli BL21(DE3)pLysS, pET3a vector
T1 sequence (P07107 2-87 A54C): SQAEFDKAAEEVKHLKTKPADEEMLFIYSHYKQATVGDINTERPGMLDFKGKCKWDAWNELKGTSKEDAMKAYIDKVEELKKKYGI

T2: FACI-24 (Bos taurus, UniProt P07107, M25C)
T2 construct: made in house; host or cells: E. coli BL21(DE3)pLysS, pET3a vector
T2 sequence (P07107 2-87 M25C): T1 sequence (P07107 2-87 A54C) with M24C, C53A

T3: native bovine ACBP (Bos taurus, UniProt P07107)
T3 sequence (P07107 1-87): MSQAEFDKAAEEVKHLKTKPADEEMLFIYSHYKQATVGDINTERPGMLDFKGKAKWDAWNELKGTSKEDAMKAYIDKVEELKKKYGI

B1: FACI-53: badan derivative of A53C-bovine ACBP (Fluorescent Acyl-CoA Indicator 53) (conjugate, UniProt P07107 2-87, looked up, variant A53C)
Acyl-CoA-binding protein: T1 sequence (P07107 2-87 A54C)
modifications: badan label
B2: FACI-24: badan derivative of M24C-bovine ACBP (Fluorescent modified Acyl-CoA Indicator 24) (conjugate, UniProt P07107 2-87, looked up, variant M24C)
Acyl-CoA-binding protein: T1 sequence (P07107 2-87 A54C) with M24C, C53A
modifications: badan label

How the values were obtained:
[1] = target: T1, FACI53; test: Fluorescence emission change of FACI-53 on titration with CoA and acyl-CoA esters; assay type: binding, bovine; settings: for Fluorescence emission maximum of FACI-53 with ligand: 525 nm when no ligand present, excitation 400 nm; for Relative emission of FACI-53 at 495 nm, fold increase: emission at 495 nm
Protocol: (§1) Quantitative determination of binding affinities (KD) were performed by isothermal titration micro calorimetry as previously described (Faergeman et. al., 1996; Biochemistry 35, 14118-14126). Qualitative evaluation of relative binding affinities were determined by isoelectrical focusing using the Pharmacia Fast Gel system according to the prescriptions given by the manufacture. Fluorescence emission changes induced by acyl-CoA binding to badan modified protein were determined as follows: 5 μl portions of acyl-CoAs were added from stock solutions disolved in binding buffer, (10 mM Hepes, 150 mM NaCL, 1 mM NaHPO4, pH 7.4) containing 3.4 μM Badan derivatized protein to a 1 ml 3.4 μM solution of the Badan derivatized ACBP in the same buffer. The fluorescence emission was measured on a SPEX FLOUROLOG (Industries Inc, Edison N.J., USA) with excitation at 400 nm and emission scan from 400 nm to 550 nm. The concentration of acyl-CoA in the aqueous phase was determined from the fluorescence emission sensitivities at 495 and 470 nm repectively essentially by the method described by (Grynkiewickz et. al.,1985, J. Biol. Chem. 260, 3440-3450) according to which:
(§2) Fluorescence titration emission spectra from 415 nm to 550 nm (excitation at 400 nm) were performed for CoA, C4:0-, C8:0-, C12:0-, C16:0-, and C20:0-CoA with all four mutated and badan modified proteins.
Titration of FACI-53 dissolved in binding buffer with the above mentioned acyl-CoA esters produced a smooth downward shift in fluorescence emission maximum from 525 nm when no ligand was present to 508, 503, 490, 492, 496 and 514 with increasing concentrations of CoA, C4:0-, C8:0-, C12:0-, C16:0- and C20:0-CoA respectively.

[2] = target: T2, FACI-24; test: Fluorescence titration equilibrium binding analysis of CoA and acyl-CoA esters to FACI-24; parameters: species or system bovine
Protocol: Development of a mathematical expression describing the relationship between acyl-CoA concentration and FACI-24 fluorescence was performed essentially as by Richieri et al 1992, J Biol Chem, 267:23495-23501. However, where ligand binding to ADIFAB induces both a fluorescence intensity increase around 505 nm and a fluorescence intensity decrease around 432 nm, ligand binding to FACI-24 only causes an increase in fluorescence around 460 nm.
Derivatisation of an expression for the fluorescence value as a function of the acyl-coA concentration was done using the Scatchard equation as a starting point: [formula]
which has been used to fit the titration data.
The curves represent the best fit analysis from two independent experiment calculated and normalized as described above. The FACI-24 binding affinity increases dramatically when the acyl-chain length increases from C8 to C10 and C12, a smaller but significant drop in Kd is seen by increasing chain length from C12 to C14. C14 to C18 saturated acyl-CoA esters and C18:1-CoA binds with similar and very high affinities to FACI-24. In >0.1 M salt, FACI-24 binds acyl-CoAs with higher affinity and similar specificity as native unmodified bovine ACBP. The Kd for binding of C12-CoA and C16-CoA to native ACBP is 40 and 2.0 nM, respectively (Fulcery et al Biochemical, 1997, 325:423-428; Færgeman et al 1996, Biochemistry, 35:14118-14126). FACI-24 is highly specific for binding long-chain acyl-CoA esters.
(§3) Titration of FACI with acyl-CoAs was done using a SPEX FLOUROLOG (Industries Inc, Edison N.J., USA) with excitation at 387 nm and emission at 460 nm, with both excitation and emission slits set to 4.5 nm. FACI (0.5-4.5 uM, as indicated) was dissolved in 1.5 ml binding buffer (10 mM HEPES 150 mM NaCl, 5 mM KCl, 1 mM Na2HPO4, pH 7.4) and titrated with a 10 μM acyl-CoA dissolved in binding buffer, with or without FACI added, as indicated. Fluorescence emission values (counts per second) measured without FACI added to the ligand stock solution were corrected for titrand dilution.
Up to four parameters were fitted in this way, these were B, representing the point of saturation on the X axis, H, representing the maximum fluorescence, i.e. the fluorescence at saturating concentration of acyl-CoA, L, the minimum fluorescence value, i.e. the fluorescence of FACI-24 alone in buffer, and K, the Kd value lor the acyl-CoA in question. Initial estimates for the fittable parameters were typically: B=1, H=maximum fluorescence value measured, L=minimum fluorescence value measured (at acyl-CoA-concentration=0), and K as judged from the raw data, typically from 0.0001 uM to 0.1 uM for acyl-CoA longer than C10:0-CoA.
For each acyl-CoA at least two titrations and fittings were performed. To consider two or more titrations of the same acyl-CoA together and obtain a Kd value using all these titrations, both axes of the raw data were standardised using the fitted values of B, H and L in this way:
X axis standard=(raw X axis values)/Bfitted
Y axis standard=[(raw Y axis values)−Lfitted]/[Hfitted−Lfitted]
In this way all Y axis values should come to lie between 0 and 1 and the X axis value should be 1 at the point of saturation (FACI-24:acyl-CoA 1:1). Such adjusted data were pooled and fitted using DataFit. Typically, both H and B fitted to values close to 1 and L fitted to values close to 0. K was typically fitted to values somewhere between the two values obtained for the raw data.
This could be overcome by removing B from the fittable parameters list and instead setting it to a constant value of 1 and fitting again. This was typically done for both the raw and the standardised data.

[3] = target: T2, FACI-24; test: Fluorescence emission change of FACI-24 on titration with CoA and acyl-CoA esters; assay type: binding, bovine; settings: for Downshift in emission maximum of FACI-24: emission maximum without ligand 510 nm, excitation 400 nm
Protocol: as §1, §2
The emission maximum of FACI-24 without ligand added was 510 nm and titration with CoA, C4:0-, C8:0-, C12:0-, […], C16:0- and C20:0-CoA caused 0, 16, 34, 42, 46 and 46 nm downshift in emission maximum, respectively (results not shown). C16:0-CoA induced a 5,5 fold increase in emission at 464 nm (FIG. 10).
as §3

[4] = target: T3, native bovine ACBP; settings: literature, read-out: KD for binding to native bovine ACBP, cited from earlier work
[5] = FACI-24 (1.5 μM) titrated with increasing CoA and acyl-CoA concentration, fitted binding curves, emission 460 nm, read-out: Kd (nM) ± S.E.

| Molecule | Magnitude of emission of FACI-53, fold increase [1] [fold] | Fluorescence emission maximum of FACI-53 with ligand [1] [nm] | Relative emission of FACI-53 at 495 nm, fold increase [1] [fold] | Kd [2, 5] [nM] | Downshift in emission maximum of FACI-24 [3] [nm] | other results |
| --- | --- | --- | --- | --- | --- | --- |
| CCCC(=O)SCCNC(=O)CCNC(=O)[C@H](O)C(C)(C)COP(=O)(O)OP(=O)(O)OC[C@H]1O[C@@H](n2cnc3c(N)ncnc32)[C@H](O)[C@@H]1OP(=O)(O)O [C4:0-CoA] | 1.8 | 503 | 2.8 | 1500 ± 223 | 16 |  |
| CCCCCCCC(=O)SCCNC(=O)CCNC(=O)[C@H](O)C(C)(C)COP(=O)(O)OP(=O)(O)OC[C@H]1O[C@@H](n2cnc3c(N)ncnc32)[C@H](O)[C@@H]1OP(=O)(O)O [C8:0-CoA] | 2.9 | 490 | 4.8 | 342 ± 31.9 | 34 |  |
| CCCCCCCCCC(=O)SCCNC(=O)CCNC(=O)[C@H](O)C(C)(C)COP(=O)(O)OP(=O)(O)OC[C@H]1O[C@@H](n2cnc3c(N)ncnc32)[C@H](O)[C@@H]1OP(=O)(O)O [C10:0-CoA] |  |  |  | 61.8 ± 2.49 |  |  |
| CCCCCCCCCCCCCC(=O)SCCNC(=O)CCNC(=O)[C@H](O)C(C)(C)COP(=O)(O)OP(=O)(O)OC[C@H]1O[C@@H](n2cnc3c(N)ncnc32)[C@H](O)[C@@H]1OP(=O)(O)O [C14:0-CoA] |  |  |  | 1.66 ± 0.26 |  | Kd ([4]; isothermal titration microcalorimetry, >0.1 M salt): 16 nM; Kd ([2]; titration equilibrium analysis, >0.1 M salt, read-out: KD for binding to FACI24): 1.7 nM |
| CCCCCCCCCCCCCCCCCC(=O)SCCNC(=O)CCNC(=O)[C@H](O)C(C)(C)COP(=O)(O)OP(=O)(O)OC[C@H]1O[C@@H](n2cnc3c(N)ncnc32)[C@H](O)[C@@H]1OP(=O)(O)O [C18:0-CoA] |  |  |  | 1.65 ± 0.83 |  |  |
| CC(C)(COP(=O)(O)OP(=O)(O)OC[C@H]1O[C@@H](n2cnc3c(N)ncnc32)[C@H](O)[C@@H]1OP(=O)(O)O)[C@@H](O)C(=O)NCCC(=O)NCCS [CoASH, Coenzyme A] | 1.1 | 508 | 1.5 | 2450 ± 249 | 0 | Fluorescence response of FACI-53 ([1]; listed as CoA): hardly responded; Fluorescence response of FACI-53 ([1]; listed as free CoA): Neither FACI24 or FACI53 respond significantly; Kd [4]: 2000 nM; Kd ([2]; read-out: Kd for binding to FACI-24): 2500 nM and 2000 nM; Fluorescence response of FACI-24 [3]: Neither FACI24 or FACI53 respond significantly; Fold increase in FACI-24 fluorescence emission at 460 nm ([3]; emission at 460 nm): 3 fold |
| C18:1-CoA |  |  |  | 0.59 ± 0.19 |  |  |
| B1 |  |  |  |  |  | Emission maximum of FACI53 on titration with ligand ([1]; FIG. 3): 487 nm; Fluorescence emission maximum of FACI-53, no ligand present ([1]; no ligand): 525 nm |
| B2 |  |  |  |  |  | Emission maximum of FACI24 on titration with ligand ([3]; FIG. 2): 465 nm; Emission maximum of FACI-24 without ligand added ([3]; no ligand): 510 nm |
